Reference: paper PMC5309245, “Discovery and Characterization of Diazenylaryl Sulfonic Acids as Inhibitors of Viral and Bacterial Neuraminidases” (Frontiers in Microbiology, 2017)

How the values were obtained:
[1] = molecular target: IAV WSN/33 NA-wt (whole virus) (Influenza A virus, UniProt P03470); experiment: biochemical; design: species or system influenza A virus A/WSN/1933 (H1N1); details: for IC50: NA inhibition using FL assay IC50, IAV WSN/33
[2] = molecular target: IAV HK/68 NA (whole virus) (Influenza A virus, UniProt Q91MA2); experiment: biochemical; design: species or system influenza A virus A/Hong Kong/68 (H3N2); details: for IC50: NA inhibition using FL assay IC50, IAV HK/68
[3] = molecular target: T1, S. pneumoniae DSM20566 NA (NanA) (Streptococcus pneumoniae, UniProt P62575); experiment: FL NA inhibition assay, S. pneumoniae DSM20566; assay type: biochemical; details: MUNANA substrate; read-out: NA inhibition using FL assay IC50, S. p. DSM20566
T1 construct: host or cells: either rNanA from E. coli BL21(DE3) or total precipitated protein of S. pneumoniae DSM20566

IAV 5258/09 NA = experiment: Hemagglutination (HA)-based NA inhibition assay, IAV 5258/09; assay type: cell-based, influenza A virus A/Jena/5258/2009 (H1N1); details: human erythrocytes
[4] = molecular target: T2, S. pneumoniae DSM20566 NA (Streptococcus pneumoniae, UniProt P62575); experiment: HA-based NA inhibition assay, S. pneumoniae DSM20566; assay type: cell-based; details: human erythrocytes
T2 construct: host or cells: either rNanA from E. coli BL21(DE3) or total precipitated protein of S. pneumoniae DSM20566

[5] = test system: influenza A virus 8178/09; experiment: microbe, parasite or virus in culture; assay type: cell-based, influenza A virus A/Jena/8178/2009 (H1N1); details: for IC50: Influenza A virus, MDCK, 48 h, read-out: 50% inhibitory concentration, influenza A virus 8178/09
influenza A virus WSN/33 = experiment: microbe, parasite or virus in culture; assay type: cell-based, influenza A virus A/WSN/1933 (H1N1); details: for IC50: Influenza A virus, WSN, MDCK, 48 h, read-out: 50% inhibitory concentration, influenza A virus WSN/33
influenza A virus HK/68 = experiment: microbe, parasite or virus in culture; assay type: cell-based, influenza A virus A/Hong Kong/68 (H3N2); details: for IC50: Influenza A virus, MDCK, 48 h, read-out: 50% inhibitory concentration, influenza A virus HK/68
[6] = test system: 8178/09-, WSN/33-, or HK/68-induced cytopathic effect; experiment: CPE inhibition assay (viruses not separated); assay type: cell-based; details: Influenza A virus, MDCK, read-out: IC50 of inhibition of the 8178/09-, WSN/33-, or HK/68-induced cytopathic effect
S. pneumoniae DSM20566 [7] = experiment: Microtiter broth microdilution assay, planktonic growth; assay type: cell-based, Streptococcus pneumoniae DSM20566; details: 18 h, maximum 50 μM; for IC50: Streptococcus pneumoniae, DSM20566, read-out: 50% inhibitory concentration, S. pneumoniae DSM20566 planktonic growth
[8] = test system: S. pneumoniae DSM20566 biofilm; experiment: Biofilm inhibition assay; assay type: cell-based, Streptococcus pneumoniae DSM20566; details: for inhibition at 50 µM: Streptococcus pneumoniae, DSM20566, read-out: Inhibition of biofilm formation at the maximum tested concentration; for 50% inhibitory concentration, S. pneumoniae DSM20566 biofilm formation: 24 h, maximum 50 μM
human erythrocytes [9] = assay type: cell-based; details: human erythrocytes, 2 h at 4°C
Experimental: (§1) Viral (whole virus) and bacterial NA activity as well as their inhibition were measured by using a fluorescence (FL) assay with the substrate 2′-(4-methylumbelliferyl)-α-D-N-acetylneuraminic acid sodium salt hydrate (MUNANA, 100 μM; Sigma-Aldrich GmbH, Taufkirchen, Germany), and/or a hemagglutination (HA)-based NA inhibition assay (HA assay) with human erythrocytes (Institute of Transfusion Medicine, University Hospital Jena, Jena, Germany), both assays as published recently (Richter et al., [2015]). Recombinant NanA (rNanA) and total precipitated bacterial protein of S. pneumoniae DSM20566 were used in FL and HA assays. Interference of the compounds with the FL signal (self-fluorescence and quenching) was excluded as described previously (Richter et al., [2015]). […] Each compound was tested at least three times in both NA inhibition assays.
Supplementary Table 1. Assay interference phenomena of test compounds in the HA-based […]
sample concentrations [µM] in viral HA-assay bacterial HA-assay […]
hem- prevention of erythrocyte hem- erythrocyte agglutinationa virus-induced lysisc agglutinationd lysise […]
cTest compounds lysed the human erythrocytes (2 h at 4°C). […]

human erythrocytes [10] = assay type: cell-based; details: human erythrocytes, 4 h at 37°C and 12 h at 4°C
Experimental: as §1
Supplementary Table 1. […]
eTest compounds lysed the human erythrocytes (4 h at 37°C and 12 h at 4°C).

in vitro = details: dog
S. pneumoniae DSM20566 [11] = experiment: Bactericidal or bacteriostatic activity (subculture on blood agar); assay type: cell-based, Streptococcus pneumoniae DSM20566; details: 0.1 µM

SMILES	IC50 [1] [µM]	IC50 [2] [µM]	IC50 [3] [µM]	NA inhibition using HA assay MIC, IAV 5258/09 (IAV 5258/09 NA)	NA inhibition using HA assay MIC, S. p. DSM20566 [4]	IC50 [5] [µM]	IC50 (influenza A virus WSN/33) [µM]	IC50 (influenza A virus HK/68) [µM]	IC50 [6] [µM]	IC50 (S. pneumoniae DSM20566 [7]) [µM]	inhibition at 50 µM [8] [%]	sample concentrations provoking erythrocyte lysis, viral HA-assay (human erythrocytes [9])	sample concentrations provoking erythrocyte lysis, bacterial HA-assay (human erythrocytes [10])	CC50 (in vitro) [µM]	NA inhibition using FL assay IC50, IAV WSN/33 [1]	50% inhibitory concentration, S. pneumoniae DSM20566 biofilm formation [8]	other results
O=S(=O)(O)c1ccc(/N=N/c2ccc(/N=N/c3ccc(O)c4ccccc34)cc2)cc1 [Compound 6]	36.4 ± 4.2	83.4 ± 3.67	1.18 ± 0.55	24.40 ± 12.47 µM	Not active^c	10.6 ± 0.71	24.2 ± 9.78	20.8 ± 1.99	< 15	6.14 ± 0.61	46	no	no	> 100			
C[C@@H](O)[C@H]1C(=O)N2C(C(=O)O)=C(SCCN=CN)C[C@H]12 [Imipenem, imipenem, reference compound]																	Activity (bactericidal or bacteriostatic) (S. pneumoniae DSM20566 [11]): bactericidal; cfu per agar plate (S. pneumoniae DSM20566 [11]; 18 h, then subculture): < 150
Cc1ccccc1/N=N/c1ccc(/N=N/c2c(O)ccc3cc(S(=O)(=O)O)ccc23)c(C)c1 [Compound 4]		71.1 ± 22	4.79 ± 1.31	Not active^c	Not active^c	12.1 ± 4.83	14 ± 2.68	13.2 ± 3.11	< 15	12 ± 6.81	46	no	100 µM	> 100	Not active		
O=[N+]([O-])c1ccc(/N=N/c2c(O)ccc3cc(S(=O)(=O)O)ccc23)cc1 [Compound 11]	33.1 ± 4.6	77.3 ± 10.6	23.2 ± 13.1	Not active	Not active							no	no	> 100		Not active	50% inhibitory concentration, influenza A virus 8178/09 [5]: Not active; 50% inhibitory concentration, influenza A virus WSN/33 (influenza A virus WSN/33): Not active; 50% inhibitory concentration, influenza A virus HK/68 (influenza A virus HK/68): Not active; 50% inhibitory concentration, S. pneumoniae DSM20566 planktonic growth (S. pneumoniae DSM20566 [7]): Not active
COc1cc(/N=N/c2ccc(S(=O)(=O)O)cc2)ccc1/N=N/c1c(O)ccc2ccccc12 [Compound 7]	4.25 ± 1.25	87.2 ± 8.03	5.6 ± 3.01	Not active^c	Not active^c	3.28 ± 2.19	78.6 ± 16.2	4.22 ± 0.98	< 15	3.32 ± 0.72	46	no	no	> 100			
O=S(=O)(O)c1ccc2c(/N=N/c3ccc(/N=N/c4ccccc4)cc3)c(O)ccc2c1 [Compound 3]			11.6 ± 0.15	Not active^c	Not active^c	14.4 ± 8.16	52.2 ± 17.9	13.6 ± 3.18	< 15	20.1 ± 2.24		no	no	> 100	Not active	Not active	NA inhibition using FL assay IC50, IAV HK/68 [2]: Not active
